Experimental data published in patent US10392398B2, “Inhibitors of Late SV40 Factor (LSF) as cancer chemotherapeutics” (TRUSTEES OF BOSTON UNIVERSITY, priority 2010, dated 2019).

What was measured:
[1] = system: HeLa cells; assay: Cell proliferation assay (MTS), HeLa; type: cell-based; conditions: Homo sapiens
Procedure: Cells were plated at 3×10^4 cells/mL, A549 and HeLa, and 1×10^4 cells/mL, NIH/3T3, in 96-well plates and incubated for 24 h to allow for cell adhesion. LSF-library compounds were dissolved in DMSO, serial diluted in appropriate medium and added to cells in triplicate (2 plates). DMSO was added to control wells at a final concentration of 1%. After 72 h incubation in the presence of compound, confluent cells were assayed for growth proliferation with CellTiter 96® AQueous One Solution Cell Proliferation Assay (MTS) (Promega) according to the manufacturer's protocol. Plates were read at 490 nm on a microplate reader, and IC50 values were determined as the percentage of compound-treated cell growth to control cell growth. HCC cells—one hour after plating HCC cells onto 96-well plates, compound or vehicle (DMSO) was added to the desired concentrations, keeping DMSO at 0.5%. At indicated time points, cell viability was assayed using the CellTiter 96® Non-Radioactive Cell Proliferation Assay (MTT) (Promega).

[2] = biological target: T1, LSF (Homo sapiens, UniProt Q12800); assay: Cellular Thermal Shift Assay (CETSA), LSF; type: binding; design: expressed in transfected cells
T1 sequence (Q12800 1-502): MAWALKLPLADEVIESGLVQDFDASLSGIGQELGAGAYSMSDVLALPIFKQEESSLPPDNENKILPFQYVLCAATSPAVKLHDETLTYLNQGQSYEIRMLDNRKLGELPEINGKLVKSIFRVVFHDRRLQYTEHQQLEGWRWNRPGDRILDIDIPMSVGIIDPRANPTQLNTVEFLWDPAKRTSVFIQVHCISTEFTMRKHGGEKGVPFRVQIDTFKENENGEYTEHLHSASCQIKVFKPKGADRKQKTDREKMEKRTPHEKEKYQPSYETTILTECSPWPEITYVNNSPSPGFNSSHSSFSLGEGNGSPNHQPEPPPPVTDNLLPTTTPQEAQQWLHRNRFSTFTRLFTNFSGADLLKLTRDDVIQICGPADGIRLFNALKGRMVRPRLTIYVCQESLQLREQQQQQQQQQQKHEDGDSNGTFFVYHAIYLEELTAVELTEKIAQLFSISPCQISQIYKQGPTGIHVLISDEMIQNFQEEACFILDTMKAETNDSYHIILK
Procedure: (§1) Drug-target engagement was assessed using CETSA as described by Molina et al. (Monitoring Drug-Target Engagement in Cells and Tissues Using Cellular Thermal Shift Assay. Science (2013) 341, 84-87). QGY-7703 cells were cultured at 37° C. in 5% CO2 in DMEM (Dulbecco's modification of Eagle's Medium; Corning) supplemented with 10% Fetal Bovine Serum (FBS; Invitrogen). Cells were seeded into 10 cm plates and allowed to reach 60-80% confluency. After trypsinization (0.05% Trypsin-EDTA, Invitrogen), cell pellet was washed twice with ice-cold 1×PBS (137 mM NaCl, 2.7 mM KCl, 10 mM Na2HPO4, 2 mM KH2PO4, pH 7.2). Cell pellet was lysed by addition of 200 μL freshly prepared ice-cold RIPA buffer (10 mM Tris-Cl pH 8.0, 1 mM EDTA, 0.5 mM EGTA, 1% Triton X-100, 0.1% sodium deoxycholate, 0.1% SDS, 140 mM NaCl) supplemented with 1 mM Pefabloc (Sigma-Aldrich), and flash frozen in liquid nitrogen and thawed for a total of three cycles. Cell lysate was centrifuged at 20,000×g for 20 minutes to clarify. Supernatant was either treated immediately or saved at −80° C. for future use. […]
(§2) Immunoblots were quantified using Image J and graphed using GraphPad PRISM. Area-under-the-curve (AUC) for the quantified western blots were calculated with GraphPad PRISM and non-parametric t-test was calculated to determine statistical significance between the curves. […]

[3] = biological target: T2, GRHL1 (Homo sapiens, UniProt Q9NZI5); assay: Cellular Thermal Shift Assay (CETSA), GRHL1; type: binding; conditions: QGY-7703 lysate, 500 μM
T2 construct: endogenous in cells; host or cells: QGY-7703 cell lysate
T2 sequence (Q9NZI5 1-618): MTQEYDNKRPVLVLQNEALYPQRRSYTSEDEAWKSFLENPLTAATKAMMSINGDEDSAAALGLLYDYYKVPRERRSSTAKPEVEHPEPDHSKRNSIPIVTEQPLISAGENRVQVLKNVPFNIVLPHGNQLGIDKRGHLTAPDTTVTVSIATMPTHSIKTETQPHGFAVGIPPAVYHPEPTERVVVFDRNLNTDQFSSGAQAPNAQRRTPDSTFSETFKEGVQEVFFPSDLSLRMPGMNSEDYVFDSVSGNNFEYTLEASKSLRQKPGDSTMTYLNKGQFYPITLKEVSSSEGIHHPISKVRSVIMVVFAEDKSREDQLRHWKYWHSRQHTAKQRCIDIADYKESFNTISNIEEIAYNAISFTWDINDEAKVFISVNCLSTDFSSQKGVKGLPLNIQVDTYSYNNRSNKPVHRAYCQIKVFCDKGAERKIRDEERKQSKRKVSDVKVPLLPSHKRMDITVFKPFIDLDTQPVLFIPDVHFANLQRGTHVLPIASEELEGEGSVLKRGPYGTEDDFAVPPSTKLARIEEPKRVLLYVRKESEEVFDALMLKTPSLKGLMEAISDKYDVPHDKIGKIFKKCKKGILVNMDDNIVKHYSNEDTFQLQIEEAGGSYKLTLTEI
Procedure: as §1, §2

[4] = system: LBP1a/b; assay: Cellular Thermal Shift Assay (CETSA), LBP1a/b; type: binding; conditions: QGY-7703 lysate, 500 μM
Procedure: as §1, §2

Structure (SMILES) | IC50 ([1]; HeLa, Example 7, FIG. 8, read-out: growth inhibition of HeLa Cell Line IC50) | GI50 ([1]; 72 h, MTS) | binding to LSF by CETSA ([2]; QGY-7703 lysate, 500 μM) | LSF CETSA ([2]; Table 5, YES/NO) | binding to GRHL1 by CETSA [3] | binding to LBP1a/b by CETSA [4]
CCOc1ccccc1C1CC(=O)Nc2cc3c(cc21)OCO3 (racemic) [FQI1, 8-(2-ethoxyphenyl)-7,8-dihydro-[1,3]dioxolo[4,5-g]quinolin-6(5H)-one] | 790 ± 35 nM | 0.79 µM | – | – | – | –
CCOc1cc(N(C)C)ccc1C1CC(=O)Nc2cc3c(cc21)OCO3 (stereo not drawn) [FQI-34, 8-(4-(dimethylamino)-2-ethoxyphenyl)-7,8-dihydro-[1,3]dioxolo[4,5-g]quinolin-6(5H)-one] | – | – | directly binds | YES | does not bind | directly binds
